From patent US11279733B2, “Peptide antibiotics” (priority 2017, dated 2022)
≈ marks a conversion by molar mass, not a printed value. Read-outs that look alike come from different tables or passages of the source. Starred links: 1 amine or outer side, 2 acyl side, 3 side chain; linkers in the order of their positions; H or OH if unused. Positions of bridges follow the written chain, without caps; N, C: chain ends. Non-standard residues stand in square brackets, D forms with d. Residues, ends and D or L forms follow the SMILES beside them. *: point of attachment. Decanoyl(3R-OH) = CCCCCCC[C@@H](O)CC(=O)*; azaLeu = CC(C)CN(N[*:1])C(=O)[*:2]; hPhe = N[C@@H](CCc1ccccc1)C(=O)O; Nonanoyl = CCCCCCCCC(=O)*; dDab = NCC[C@@H](N)C(=O)O; Octanoyl = CCCCCCCC(=O)*; dDap = NC[C@@H](N)C(=O)O; Dab = NCC[C@H](N)C(=O)O

How the values were obtained:
bacterial strains = test: Potentiation/synergy antimicrobial assay (checkerboard, FICI) with antibiotics; format: cell-based; conditions: GN_181 E. coli mcr-1
Procedure: Potentiation/synergy antimicrobial assays were conducted in the same manner as the standard MICs described above, with the following modifications. Assays were performed in 384-well non-binding surface plates (NBS; Corning 3460) and in Cation-adjusted Mueller Hinton Broth (CA-MHB; BD, Cat. No. 212322) with a final assay volume of 50 μL once bacteria was added at 5×10^5 CFU/mL. Antibiotics and octapeptin compounds were plated in duplicate as a 2-fold concentration series, in a matrix checkerboard format. The bacterial cell density of the resultant assay plates after 18-20 h incubation at 37° C. was read by optical density 600 nm (OD600) using a Tecan M1000 Pro Spectrophotometer, and analysed for ≥90% growth inhibition compared to the growth control to determine active concentrations. Synergistic effect was calculated based on the fractional inhibitory concentration index (FICI) by the following equation, where synergy is deemed FICI 0.5: […]

A. baumannii ATCC 19606 = conditions: ATCC 19606
Procedure: (§1) Bacteria were either obtained from American Type Culture Collection (ATCC; Manassas, Va., USA) or independent academic clinical isolate collections, as listed in Table 18 below. Bacteria were cultured in Nutrient broth (NB; Bacto Laboratories, catalogue No. 234000) or Mueller Hinton broth (MHB; Bacto Laboratories, catalogue No. 211443) at 37° C. overnight with shaking (˜180 RPM). A sample of each culture was then diluted 50-fold in fresh MHB and incubated at 37° C. for 2-3 h with shaking (˜180 RPM). Compound stock solutions were prepared as 0.64 mg/mL or 2.56 mg/mL in water. The compounds, at twice the final desired concentration, were serially diluted 2-fold across the wells of 96-well plates (Polystyrene, Corning, catalogue No. 3370). Mid-log phase bacterial cultures (after 2-3 h incubation) were diluted to a final concentration of 1×10^6 colony forming units (CFU)/mL, and 50 μL was added to each well giving a final cell density of 5×10^5 and a compound concentration range of 32 μg/mL to 0.015 μg/mL (128-0.06 μg/mL against P. aeruginosa PA9704).

A. baumannii GN_093 PmxR = conditions: GN 093 PmxR
Procedure: as §1

E. coli ATCC 25922 = conditions: ATCC 25922
Procedure: as §1

K. pneumoniae ATCC 13883 = conditions: ATCC 13883
Procedure: as §1

[1] = system: K. pneumoniae ATCC 700603, MDR; conditions: ATCC 700603
Procedure: as §1

[2] = system: K. pneumoniae ATCC BAA-2146, NDM-1 pos; conditions: ATCC BAA-2146
Procedure: as §1

[3] = system: K. pneumoniae GN_102 PmxR; conditions: GN 102 PmxR
Procedure: as §1

[4] = system: K. pneumoniae GN_106, PmxR; conditions: GN 106, PmxR
Procedure: as §1

P. aeruginosa ATCC 27853 = conditions: ATCC 27853
Procedure: as §1

[5] = system: P. aeruginosa GN_043, PmxR
Procedure: as §1

[6] = system: P. aeruginosa GN_105, PmxR; conditions: GN 105, PmxR
Procedure: as §1

[7] = system: S. aureus ATCC 25923, MSSA; conditions: ATCC 25923
Procedure: as §1

SMILES	MIC A. baumannii ATCC 19606 (A. baumannii ATCC 19606)	MIC E. coli ATCC 25922 (E. coli ATCC 25922)	MIC K. pneumoniae ATCC 13883 (K. pneumoniae ATCC 13883)	MIC K. pneumoniae ATCC 700603, MDR [1]	MIC K. pneumoniae ATCC BAA-2146, NDM-1 pos [2]	MIC P. aeruginosa ATCC 27853 (P. aeruginosa ATCC 27853)	MIC S. aureus ATCC 25923, MSSA [7]	MIC A. baumannii GN_093 PmxR (A. baumannii GN_093 PmxR)	MIC K. pneumoniae GN_102 PmxR [3]	MIC K. pneumoniae GN_106, PmxR [4]	MIC P. aeruginosa GN_043, PmxR ([5]; polymyxin-resistant)	MIC P. aeruginosa GN_105, PmxR [6]	MIC P. aeruginosa GN_043, PmxR ([5]; P. aeruginosa GN_043, PmxR)	other results
CC(=O)NC[C@H]1CN(c2ccc(N3CCOCC3)c(F)c2)C(=O)O1 [Linezolid, linezolid]														MIC of antibiotic with OctC4 at concn 0 (bacterial strains; OctC4 0 μg/mL): >32 µg/mL; MIC of antibiotic with OctC4 at concn 0.03 (bacterial strains; OctC4 0.03 μg/mL): 8 µg/mL; MIC of antibiotic with OctC4 at concn 0.0625 (bacterial strains; OctC4 0.0625 μg/mL): 4 µg/mL; MIC of antibiotic with OctC4 at concn 0.125 (bacterial strains; OctC4 0.125 μg/mL): 4 µg/mL; MIC of antibiotic with OctC4 at concn 0.25 (bacterial strains; OctC4 0.25 μg/mL): 0.25 µg/mL
CCCCCCC[C@@H](O)CC(=O)N[C@H](CCN)C(=O)N[C@H]1CCNC(=O)[C@H](CC(C)C)NC(=O)[C@H](CCN)NC(=O)[C@H](CCN)NC(=O)N(CC(C)C)NC(=O)[C@@H](Cc2ccccc2)NC(=O)[C@H](CCN)NC1=O [compound 8803, 3(R)OH-nC9CO-D-Dab-cyc[L-Dab-L-DAB-D-Phe-azaLeu-L-Dab-L-Dab-L-Leu]] ({Decanoyl(3R-OH)}-[dDab][Dab][Dab][dF][azaLeu][Dab][Dab]L; lactam 2-C)	8 µg/mL (≈ 7.65 µM)	2 µg/mL (≈ 1.91 µM)	8 µg/mL (≈ 7.65 µM)	8 µg/mL (≈ 7.65 µM)	8 µg/mL (≈ 7.65 µM)	4 µg/mL (≈ 3.83 µM)	16 µg/mL (≈ 15.3 µM)							MIC A. baumannii Cl Ptyela 10073 4512:2, PmxR (A. baumannii GN_093 PmxR): 32 µg/mL (≈ 30.6 µM); MIC K. pneumoniae Cl Koprana 10065 0661:1 PmxR [3]: 2 µg/mL (≈ 1.91 µM); MIC K. pneumoniae Cl 183-16357-20352, PmxR [4]: 4 µg/mL (≈ 3.83 µM); MIC, P. aeruginosa FADDI-PA070, PmxR ([5]; strain name as in Table 11): 1 µg/mL (≈ 0.957 µM); MIC P. aeruginosa PA9704, PmxR [6]: 2 µg/mL (≈ 1.91 µM)
CCCCCCC[C@@H](O)CC(=O)N[C@H](CCN)C(=O)N[C@H]1CCNC(=O)[C@H](Cc2c[nH]c3ccccc23)NC(=O)[C@H](CCN)NC(=O)[C@H](CCN)NC(=O)[C@H](CCc2ccccc2)NC(=O)[C@@H](Cc2ccccc2)NC(=O)[C@H](CCN)NC1=O [compound 8834, nC10-3(R)OH-D-Dab-cyc[L-Dab-L-Dab-D-Phe-L-hPhe-L-Dab-L-Dab-L-Trp]] ({Decanoyl(3R-OH)}-[dDab][Dab][Dab][dF][hPhe][Dab][Dab]W; lactam 2-C)	8 µg/mL (≈ 6.86 µM)	8 µg/mL (≈ 6.86 µM)	4 µg/mL (≈ 3.43 µM)	8 µg/mL (≈ 6.86 µM)	8 µg/mL (≈ 6.86 µM)	4 µg/mL (≈ 3.43 µM)	4 µg/mL (≈ 3.43 µM)	8 µg/mL (≈ 6.86 µM)	4 µg/mL (≈ 3.43 µM)	8 µg/mL (≈ 6.86 µM)	4 µg/mL (≈ 3.43 µM)	32 µg/mL (≈ 27.5 µM)		
CCCCCCC[C@@H](O)CC(=O)N[C@H](CN)C(=O)N[C@H]1CCNC(=O)[C@H](CC(C)C)NC(=O)[C@H](CCN)NC(=O)[C@H](CCN)NC(=O)[C@H](CC(C)C)NC(=O)[C@@H](CC(C)C)NC(=O)[C@H](CCN)NC1=O [compound 8977, nC10-3(R)OH-D-Dap-(L-Dab-L-Dab-D-Leu-L-Leu-L-Dab-L-Dab-L-Leu)] ({Decanoyl(3R-OH)}-[dDap][Dab][Dab][dL]L[Dab][Dab]L; lactam 2-C)	8 µg/mL (≈ 8.03 µM)	4 µg/mL (≈ 4.01 µM)	8 µg/mL (≈ 8.03 µM)	4 µg/mL (≈ 4.01 µM)	8 µg/mL (≈ 8.03 µM)	4 µg/mL (≈ 4.01 µM)	32 µg/mL (≈ 32.1 µM)	2 µg/mL (≈ 2.01 µM)	2 µg/mL (≈ 2.01 µM)	4 µg/mL (≈ 4.01 µM)		2 µg/mL (≈ 2.01 µM)	2 µg/mL (≈ 2.01 µM)	
CCCCCCCC(=O)N[C@H](CN)C(=O)N[C@H]1CCNC(=O)[C@H](CC(C)C)NC(=O)[C@H](CCN)NC(=O)[C@H](CCN)NC(=O)[C@H](CC(C)C)NC(=O)[C@@H](CC(C)C)NC(=O)[C@H](CCN)NC1=O [compound 8978, nC7CO-D-Dap-cyc[L-Dab-L-Dab-D-Leu-L-Leu-L-Dab-L-Dab-L-Leu]] (Octanoyl-[dDap][Dab][Dab][dL]L[Dab][Dab]L; lactam 2-C)	32 µg/mL (≈ 33.6 µM)	4 µg/mL (≈ 4.2 µM)	16 µg/mL (≈ 16.8 µM)	16 µg/mL (≈ 16.8 µM)	16 µg/mL (≈ 16.8 µM)	2 µg/mL (≈ 2.1 µM)	>32 µg/mL	8 µg/mL (≈ 8.4 µM)	32 µg/mL (≈ 33.6 µM)	32 µg/mL (≈ 33.6 µM)		2 µg/mL (≈ 2.1 µM)	4 µg/mL (≈ 4.2 µM)	
CCCCCCCCC(=O)N[C@@H](CCN)C(=O)N[C@H](C(=O)N[C@@H](CCN)C(=O)N[C@H]1CCNC(=O)[C@H](Cc2c[nH]c3ccccc23)NC(=O)[C@H](CCN)NC(=O)[C@H](CCN)NC(=O)[C@H](CC(C)C)NC(=O)[C@@H](Cc2ccccc2)NC(=O)[C@H](CCN)NC1=O)[C@@H](C)O [compound 9032, nC8CO-L-Dab-L-Thr-L-Dab-cyc[L-Dab-L-Dab-D-Phe-L-Leu-L-Dab-L-Dab-L-Trp]] (Nonanoyl-[Dab]T[Dab][Dab][Dab][dF]L[Dab][Dab]W; lactam 4-C)	8 µg/mL (≈ 6.21 µM)	4 µg/mL (≈ 3.1 µM)	8 µg/mL (≈ 6.21 µM)	8 µg/mL (≈ 6.21 µM)	8 µg/mL (≈ 6.21 µM)	2 µg/mL (≈ 1.55 µM)	16 µg/mL (≈ 12.4 µM)	8 µg/mL (≈ 6.21 µM)	4 µg/mL (≈ 3.1 µM)	4 µg/mL (≈ 3.1 µM)	1 µg/mL (≈ 0.776 µM)	2 µg/mL (≈ 1.55 µM)		
